From patent publication US20260034094A1, “COMPOSITIONS AND METHODS FOR INDUCING FERROPTOSIS” (Kojin Therapeutics, Inc., priority 2022, published 2026)
Several values for one entry are separate records, joined by “and”; a condition that tells them apart may be missing. Identical values can stand only once. Like-named read-outs stand apart in the source and are kept apart here.

Key:
RKN cells = assay: RKN cell profiling assay (cell viability, CellTiter-Glo); assay type: cell-based; conditions: read-out: Cell Killing EC50
How it was run: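 Viability read by CellTiter-Glo luminescence after 96 h compound exposure (0.5% DMSO final) of cells plated at 1,000/well in 10% FBS F-12 and allowed 24 h attachment. Four-parameter fits gave EC50; rescue arms used ferrostatin-1, 1.5 μM, present from seeding.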

human recombinant GCL = human recombinant GCL (Homo sapiens (Human), UniProt P48506); assay: GCL enzyme profiling assay (ADP-Glo luminescence); assay type: biochemical
Protocol: The GCL enzyme assay was run in 50 mM HEPES, pH 7.5, containing 150 mM NaCl, 30 mM MgCl2, 0.5 mM EDTA, 1 mM DTT, 0.1 mg/mL BSA, and 0.02% or in the present case 0.2% F-127 in a total assay volume of 10 μL or 10 mL. Compound in pure DMSO was stamped in assay plates (Greiner black 384-well) or appropriate containers using a D300e digital dispenser (TECAN) and the final DMSO concentration was normalized to 1%. A 5 mL, or in the present case, 5 μL mixture of human recombinant GCL (final concentration: 5 nM) and ATP (final concentration: 0.6 mM) was added and the solution was incubated at room temperature (22° C.) for 1 h. The GCL enzyme reaction was initiated by addition of a 5 μL mixture of mono g-glutamate or in the present example, monosodium glutamate (final concentration: 1 mM) and a-aminobutyrate or α-aminobutyrate (final concentration: 1.2 mM). The reaction was stopped after 1 h or in the present case, 2 h by addition of 5 mL, or in the present case, 5 μL ADP GLO Reagent (Promega). The resulting solution was incubated for 2 h at room temperature. This was then followed by addition of 5 mL, or in the present case, 5 μL ADP GLO Detection. After incubation at room temperature for 30 min, the plates were read on a plate reader (PheraStar) using a luminescence protocol to quantify the GCL enzyme activity from each reaction solution. The data was analyzed using a four-parameter logistic equation to calculate IC50.

[1] = human recombinant GCL 5 nM, 1 h preincubation with ATP, read-out: GCL IC50
[2] = human recombinant GCL, ADP-Glo, read-out: GCL IC50

human recombinant GCL, sequence (P48506 whole entry): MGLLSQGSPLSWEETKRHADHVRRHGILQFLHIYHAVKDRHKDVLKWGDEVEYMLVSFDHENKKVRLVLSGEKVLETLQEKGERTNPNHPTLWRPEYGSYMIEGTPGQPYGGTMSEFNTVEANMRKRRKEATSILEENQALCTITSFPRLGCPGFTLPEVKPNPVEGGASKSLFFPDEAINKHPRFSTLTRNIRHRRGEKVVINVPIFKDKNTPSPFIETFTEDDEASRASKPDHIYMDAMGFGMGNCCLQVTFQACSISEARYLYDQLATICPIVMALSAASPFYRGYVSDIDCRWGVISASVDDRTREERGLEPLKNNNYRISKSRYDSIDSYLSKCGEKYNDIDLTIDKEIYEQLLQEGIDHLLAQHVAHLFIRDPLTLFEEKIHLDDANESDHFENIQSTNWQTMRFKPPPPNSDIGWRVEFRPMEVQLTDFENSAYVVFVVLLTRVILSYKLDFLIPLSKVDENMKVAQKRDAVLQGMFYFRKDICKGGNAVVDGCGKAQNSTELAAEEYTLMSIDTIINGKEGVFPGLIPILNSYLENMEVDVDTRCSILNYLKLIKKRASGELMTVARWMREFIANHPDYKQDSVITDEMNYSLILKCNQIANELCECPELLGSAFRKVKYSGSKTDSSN

Row | SMILES | EC50 (RKN cells; 96 h, 96 h exposure) [µM] | IC50 (human recombinant GCL; [1]) | EC50 (RKN cells; cell viability) [µM] | IC50 (human recombinant GCL; [2]) [mM] | IC50 (human recombinant GCL; human recombinant GCL 5 nM, 1 h preincubation with ATP, read-out: GCL IC50 (mM), individual values in parentheses)
1 | CC(C)(C)CC[S@@](=N)(=O)CC[C@H](N)C(=O)Nc1cccnc1 (single isomer, unassigned) [Compound 102] | ≥ 1000 | > 2 mM |  |  | 
2 | N=S(=O)(CCC(n1ncc(-c2ccccc2)n1)C(F)(F)F)CC[C@H](N)C(=O)O (some centres unmarked) [Compound 409] |  |  | < 1000 | ≤ 0.02 | 
3 | CC(O)(CCS(=N)(=O)CC[C@H](N)C(=O)O)C1CCC1 (stereo partly drawn) [Compound 497, (2S)-2-amino-4-(3-cyclobutyl-3-hydroxybutylsulfonimidoyl)butanoic acid] |  |  | ≥ 1000 | 0.02 to 2 | 
4 | N=S(=O)(CC[C@H](N)C(=O)O)CCC(O)(c1ccon1)C(F)(F)F (some centres unmarked) [Compound 368] |  |  | < 1000 | 0.02 to 2 | 
5 | N=S(=O)(CCC(C1CCCCC1)C(F)(F)F)CC[C@H](N)C(=O)O (stereo partly drawn) [Compound 381, (2S)-2-amino-4-(3-cyclohexyl-4,4,4-trifluorobutylsulfonimidoyl)butanoic acid] |  |  | ≥ 1000 | ≤ 0.02 | 
6 | N=S(=O)(CCC(Cc1ccccc1)C(F)(F)F)CC[C@H](N)C(=O)O (stereo partly drawn) [Compound 292, (2S)-2-amino-4-(3-benzyl-4,4,4-trifluorobutylsulfonimidoyl)butanoic acid] |  |  | ≥ 1000 | ≤ 0.02 | 
7 | N=S(=O)(CCC(c1ccc2ccccc2c1)C(F)(F)F)CC[C@H](N)C(=O)O (some centres unmarked) [Compound 310] |  |  | < 1000 | ≤ 0.02 | 
8 | N=S(=O)(CC[C@H](N)C(=O)O)CCC(O)(C1CCC1)C(F)(F)F (some centres unmarked) [Compound 357] |  |  | ≥ 1000 | ≤ 0.02 | 
9 | N=S(=O)(CCC(c1ccccc1)c1ccccc1)CC[C@H](N)C(=O)O (some centres unmarked) [Compound 55] | ≥ 1000 | 0.02 to 2 mM |  |  | 
10 | N=S(=O)(CC[C@H](N)C(=O)O)CCC(O)(c1ccc(-n2cccn2)cc1)C(F)(F)F (stereo partly drawn) [Compound 426, (2S)-4-(3-(4-(1H-pyrazol-1-yl)phenyl)-4,4,4-trifluoro-3-hydroxybutylsulfonimidoyl)-2-aminobutanoic acid] |  |  | ≥ 1000 | 0.02 to 2 | 
11 | N=S(=O)(CCCC(F)(F)F)CC[C@H](N)C(=O)NC1CC1 (some centres unmarked) [Compound 130] | < 1000 | > 2 mM and 0.02 to 2 mM |  |  | > 10 mM and 1.73 mM
12 | N=S(=O)(CC[C@H](N)C(=O)O)CCC(O)(c1ccc(-c2ccccc2O)cc1)C(F)(F)F (some centres unmarked) [Compound 434] |  |  | < 1000 | ≤ 0.02 | 
13 | CC(C)OCCS(=N)(=O)CC[C@H](N)C(=O)O (some centres unmarked) [Compound 166] | ≥ 1000 | 0.02 to 2 mM |  |  | 
14 | N=S(=O)(CCOCC(F)(F)F)CC[C@H](N)C(=O)O (some centres unmarked) [Compound 175] | ≥ 1000 | 0.02 to 2 mM |  |  | 
15 | Cc1ccc(-c2nn[nH]n2)cc1CCS(=N)(=O)CC[C@H](N)C(=O)O (some centres unmarked) [Compound 45] | ≥ 1000 | ≤ 0.02 mM |  |  | 
16 | N=S(=O)(CCCC(F)(F)F)CC[C@H](N)c1ncn[nH]1 (stereo partly drawn) [Compound 205, (1S)-1-(1H-1,2,4-triazol-5-yl)-3-(4,4,4-trifluorobutylsulfonimidoyl)propan-1-amine] | ≥ 1000 | ≤ 0.02 mM and 0.02 to 2 mM |  |  | 
17 | N=S(=O)(CCC(n1cccn1)C(F)(F)F)CC[C@H](N)C(=O)O (some centres unmarked) [Compound 411] |  |  | < 1000 | 0.02 to 2 | 
18 | N=S(=O)(CC[C@H](N)C(=O)O)CCC(O)(c1cc2cc[nH]c2cn1)C(F)(F)F (some centres unmarked) [Compound 360] |  |  | < 1000 | ≤ 0.02 | 
19 | N=S(=O)(CCCC(F)(F)F)CC[C@H](N)C(=O)Nc1ccccc1 (some centres unmarked) [Compound 132] | < 1000 | > 2 mM |  |  | 
20 | CCC(O)(CCS(=N)(=O)CC[C@H](N)C(=O)O)C(F)(F)F (some centres unmarked) [Compound 352] |  |  | < 1000 | 0.02 to 2 | 
21 | N=S(=O)(CC[C@H](N)C(=O)O)CCC12CC(C1)C2 (some centres unmarked) [Compound 294] |  |  | < 1000 | ≤ 0.02 | 
22 | N[C@@H](CCS(=O)(=O)CCC1(C(F)(F)F)OC(=O)c2ccccc21)C(=O)O (some centres unmarked) [compound 512] |  |  | ≥ 1000 | > 2 | 

Row | SMILES | EC50 (RKN cells; 96 h, 96 h exposure) [µM] | IC50 (human recombinant GCL; [1]) | EC50 (RKN cells; cell viability) [µM] | IC50 (human recombinant GCL; [2]) [mM] | IC50 (human recombinant GCL; human recombinant GCL 5 nM, 1 h preincubation with ATP, read-out: GCL IC50 (mM), individual values in parentheses)
23 | COC(=O)[C@@H](N)CCS(=N)(=O)CCc1cnccn1 (stereo partly drawn) [Compound 67, (2S)-methyl 2-amino-4-(2-(pyrazin-2-yl)ethylsulfonimidoyl)butanoate] | ≥ 1000 | > 2 mM |  |  | 
24 | N=S(=O)(CCC(C(N)=O)C(F)(F)F)CC[C@H](N)C(=O)O (some centres unmarked) [Compound 308] |  |  | < 1000 | 0.02 to 2 | 
25 | N=S(=O)(CC[C@H](N)C(=O)O)CCC(O)(c1ccncc1)C(F)(F)F (some centres unmarked) [Compound 362] |  |  | ≥ 1000 | 0.02 to 2 | 
26 | N=S(=O)(CCC(c1ccc(-c2ccccc2)cc1O)C(F)(F)F)CC[C@H](N)C(=O)O (stereo partly drawn) [Compound 391, (2S)-2-amino-4-(4,4,4-trifluoro-3-(3-hydroxy-[1,1′-biphenyl]-4-yl)butylsulfonimidoyl)butanoic acid] |  |  | < 1000 | ≤ 0.02 | 
27 | CCCCOC(=O)[C@@H](N)CCS(=N)(=O)CCC(O)(c1ccc(-c2ccc(Cl)cc2Cl)cc1)C(F)(F)F (some centres unmarked) [Compound 485] |  |  | < 1000 | 0.02 to 2 | 
28 | N=S(=O)(CC[C@@H](O)C(F)(F)F)CC[C@H](N)C(=O)O (single isomer, unassigned) [Compound 329] |  |  | ≥ 1000 | > 2 | 
29 | N=S(=O)(CCC1CC(F)(F)C1)CC[C@H](N)C(=O)O (some centres unmarked) [Compound 161] | < 1000 | 0.02 to 2 mM |  |  | 
30 | CC(C)(C)CCS(=N)(=O)CC[C@H](N)C(=O)NCc1ccccc1 (some centres unmarked) [Compound 122] | < 1000 | > 2 mM |  |  | 
31 | CC(C)(C)CCS(=N)(=O)CC[C@H](N)C(=O)Nc1ccccc1 (some centres unmarked) [Compound 118] | < 1000 | > 2 mM |  |  | 
32 | N=S(=O)(CC[C@H](N)C(=O)O)CC[C@H](O)c1ccccc1 (some centres unmarked) [Compound 54] | ≥ 1000 | 0.02 to 2 mM |  |  | 
33 | N=S(=O)(CCc1cn[nH]c1)CC[C@H](N)C(=O)O (some centres unmarked) [Compound 8] | ≥ 1000 | 0.02 to 2 mM |  |  | 
34 | CC1(CCS(=N)(=O)CC[C@H](N)C(=O)O)CCCCC1 (some centres unmarked) [Compound 300] |  |  | ≥ 1000 | 0.02 to 2 | 
35 | N=S(=O)(CC[C@H](N)C(=O)O)CCC(O)(c1ccc(-c2ccc(C(F)(F)F)cc2Cl)cc1)C(F)(F)F (some centres unmarked) [Compound 441] |  |  | < 1000 | 0.02 to 2 | 
36 | CC(C)C(O)(CCS(=N)(=O)CC[C@H](N)C(=O)O)C(F)(F)F (some centres unmarked) [Compound 353] |  |  | ≥ 1000 | ≤ 0.02 | 
37 | N=S(=O)(CC[C@H](N)C(=O)O)CCC1(C(F)(F)F)OCc2ccccc21 (some centres unmarked) [compound 511] |  |  | < 1000 | 0.02 to 2 | 
38 | N[C@@H](CCS(=O)(=O)CCC(O)(c1ccon1)C(F)(F)F)C(=O)O (some centres unmarked) [Compound 369] |  |  | ≥ 1000 | 0.02 to 2 | 
39 | N=[S@](=O)(CC[C@H](c1ccccc1)C(F)(F)F)CC[C@H](N)C(=O)O [Compound 60] | < 1000 | ≤ 0.02 mM |  |  | 
40 | Cc1cc(-c2ccc(C(O)(CCS(=N)(=O)CC[C@H](N)C(=O)O)C(F)(F)F)cc2)c(C)o1 (some centres unmarked) [Compound 447] |  |  | ≥ 1000 | ≤ 0.02 | 
41 | N=S(=O)(CC[C@H](N)C(=O)O)CCC(O)(c1ccc(-c2ccc(C(F)(F)F)cc2C(F)(F)F)cc1)C(F)(F)F (some centres unmarked) [Compound 439] |  |  | < 1000 | ≤ 0.02 | 
42 | N=S(=O)(CC[C@H](N)C(=O)O)CCC1(C(=O)N2CCCC2)CCC1 (some centres unmarked) [Compound 194] | ≥ 1000 | 0.02 to 2 mM |  |  | 
43 | Cc1ccc(-c2ccc(C(O)(CCS(=N)(=O)CC[C@H](N)C(=O)O)C(F)(F)F)cc2C#N)cc1 (some centres unmarked) [Compound 452] |  |  | ≥ 1000 | ≤ 0.02 | 
44 | N=S(=O)(CC[C@H](N)C(=O)O)CCC(O)(c1cc(-c2ccccc2)on1)C(F)(F)F (some centres unmarked) [Compound 378] |  |  | < 1000 | ≤ 0.02 | 
